# Laboratory results taken from paper PMC5823406, “Vehicle development, pharmacokinetics and toxicity of the anti-invasive agent 4-fluoro-3’,4’,5’-trimethoxychalcone in rodents” (PLoS ONE, 2018).
# How the values were obtained:
# [1] = Liver microsome stability; format: in vitro ADME; settings: liver microsomes (rat, Sprague-Dawley)
# Text: (§1) Table 3 In vitro physicochemical, stability and metabolism data. | column: Value
# [2] = Stability test of C16 in 10% Solutol HS-15 / 90% PEG 600; format: physicochemical
# Method: Solutions of 30 mg/mL and 10 mg/mL of C16 were prepared and stored at room temperature and 4°C for 24 h. The stability of C16 was evaluated at 0, 1, 2, 4, 8 and 24 h after formulation by high-performance liquid chromatography-mass spectrometry/mass spectrometry (HPLC-MS/MS) (electrospray ionization, ESI+) analysis using oxybutynin as an internal standard (IS). Analyte samples were diluted 500x with acetonitrile (ACN)/H2O (20:80). This solution was further diluted 100x with an oxybutynin solution (1 ng/μL in ACN/H2O 20:80), giving a final concentration of 0.6 ng/μL and 0.2 ng/μL, respectively, for HPLC-MS/MS analysis (multiple reaction monitoring scan mode, MRM, see Section A of S1 File for more details). All analyses were performed in triplicates.
# A.A. Vehicles for single-dose studies a. Stability test of C16 in 10% Solutol HS -15 / 90% PEG 600
# Quantification was performed by calculating the ratio of the peak area (counts) of C16 and the IS. Results are expressed as relative differences to the peak ratio at 0 h (%RE, Table A).
# Table A. Stability in 10% Solutol HS -15 / 90% PEG 600: peak ratios.
# 10mg/mL at room temperature
# 30mg/mL at room temperature
# CV: Coefficient of variation; RE: Difference in peak area relative to indicated time point. […]
# CYP 3A4 = CYP 3A4 (Homo sapiens, UniProt P08684); assay: CYP inhibition 3A4 (BFC substrate); format: in vitro ADME; settings: 10 μM
# Text: as §1
# [3] = Stability and homogeneity of C16 dispersion in Medigel Sucralose; format: physicochemical; settings: for Peak ratio C16/IS relative to first time point, Average of three wavelengths: Medigel Sucralose 235.29 mg/cup, 1.64% DMSO
# Method: A pre-weighed amount of C16 was dissolved in 1 mL of DMSO and the resulting solution was delivered into a cup of Medigel sucralose (pre-warmed to room temperature) with a syringe through the foil lid. In order to facilitate even distribution of C16 in the gel, the injection was spread over several points. The resulting suspension of C16 in gel was dispersed evenly by vigorous shaking for at least two minutes. Visual control confirmed a uniform and finely dispersed suspension of C16 particles in the gel. The final DMSO concentration in the gel was 1.64%. […]
# A.B. Vehicle development for repeated high-dose PO administration of C16 b. Stability test of the 300 mg/kg preparation of C16 in Medigel Sucralose at room temperature The 300 mg/kg preparation refers to a cup containing 235.29 mg of C16 and 1.64% DMSO (see Materials and Methods section of main text). Sampling took place for a solvent control cup (containing only 1.64% DMSO) , and for the medicated cup at 0.17, 5.33, 55, 102 and 144 h post preparation. Samples of 1 mL were withdrawn with syringe and needle through the lid, and mixed with 1 mL of acetonitrile. The supernatant of the resulting suspension was filtered through a Whatman 0.2 µm PTFE syringe filter and analyzed using HPLC -MS.
# Instrument: Agilent 1200 series HPLC system
# Column: Ascentis Express C18 column 2.7 µm (30 x 4.6 mm)
# Mobile phase A: Water (H2O) + 5 mM NH4OAc
# Mobile phase B: Acetonitrile
# Column Temperature: 40 °C
# UV Detector: Diode array detector, 190 – 400 nm
# Table B. Stability of C16 in Medigel Sucralose: g radient program .
# Time (min) Flow rate (mL/min) A (%) B (%)
# Mass spectrometer conditions
# Instrument: Agilent 1100 series VL mass spectrometer
# Ionization mode: API-ES, positive ions
# Main derivative: Z-isomer of C16
# Retention time : 3.34 min
# Table C. Stability of C16 in Medigel Sucralose: evolution of peak areas of IS, C16 and its Z-isomer in time for three wavelengths. […]
# time IS peak C16 Z- Ratio IS peak C16 Z- Ratio IS peak C16 Z- Ratio
# (h) area peak isomer (C16/IS area peak isomer (C16/IS area peak isomer (C16/IS (mAU.s) area peak peak (mAU.s) area peak peak (mAU.s) area peak peak
# (mAU.s) area area) (mAU.s) area area) (mAU.s) area area)
# Peak ratios for stability assessment
# Peak ratios for C16/IS, relative to the first time point, were calculated for three wavelengths (Table D).
# Table D. Stability of C16 in Medigel Sucralose: peak ratios for C16/IS, relative to first time point, for three wavelengths.
# Peak ratios for homogeneity assessment of a 300 mg/kg C16-doped gel
# The 300 mg/kg preparation refers to a cup containing 235.29 mg of C16 and 1.64% DMSO. After preparation (see ‘Materials and Methods’ section of main text), the gel was sampled through the lid at five sites (Fig A).
# Fig A. Sampling of C16-doped Medigel Sucralose.
# The samples were analyzed according to the method described above for the stability test of C16 in Medigel Sucralose […]
# Table E. Peak areas of IS, C16 and its Z-isomer at five sampling sites for three wavelengths. […]
# sites IS peak C16 peak Ratio IS peak C16 peak Ratio IS peak C16 peak Ratio area area (C16/IS area area (C16/IS area area (C16/IS
# (mAU.s) (mAU.s) peak area) (mAU.s) (mAU.s) peak area) (mAU.s) (mAU.s) peak area) […]
# Individual plasma concentrations for C16 are shown in Table F and Table G. All data are expressed as ng/mL of the free drug. Samples that were below the limit of quantitation were not used in the calculation of averages. Plasma concentrations versus time data are plotted in Fig B and Fig C. Measured dosing concentrations were used in all pharmacokinetic calculations.
# (1 picture or pasted object on this page, not shown here)
# CYP 3A4, sequence (P08684 whole entry): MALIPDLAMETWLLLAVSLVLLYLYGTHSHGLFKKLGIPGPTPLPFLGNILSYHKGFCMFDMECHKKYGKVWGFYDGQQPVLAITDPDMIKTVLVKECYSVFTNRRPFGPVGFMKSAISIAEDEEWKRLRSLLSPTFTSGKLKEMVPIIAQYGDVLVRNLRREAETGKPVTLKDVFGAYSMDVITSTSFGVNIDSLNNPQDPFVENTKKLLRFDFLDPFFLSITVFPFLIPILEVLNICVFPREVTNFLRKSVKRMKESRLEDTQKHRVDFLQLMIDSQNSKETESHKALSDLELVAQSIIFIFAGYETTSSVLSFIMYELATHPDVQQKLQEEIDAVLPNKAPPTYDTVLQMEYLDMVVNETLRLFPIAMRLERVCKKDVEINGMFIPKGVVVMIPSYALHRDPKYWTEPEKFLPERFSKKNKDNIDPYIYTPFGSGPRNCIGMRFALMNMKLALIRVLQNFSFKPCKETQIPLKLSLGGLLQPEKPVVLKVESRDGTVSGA
compound,measurement,setting,value
"COc1cc(C(=O)/C=C/c2ccc(F)cc2)cc(OC)c1OC [C16, 4-fluoro-3’,4’,5’-trimethoxychalcone]",half-life at 0.1 μM,[1],20 min
same,microsomal CLint at 0.1 μM,[1]; read-out: Intr. clearance,339 µL/min/mg
same,%RE to 0 h (peak ratio C16/IS),"[2]; 10mg/mL at 4 °C, 1 h",1.2%
same,%RE to 0 h (peak ratio C16/IS),"[2]; 10mg/mL at 4 °C, 2 h",-2.9%
same,%RE to 0 h (peak ratio C16/IS),"[2]; 10mg/mL at 4 °C, 4 h",1.4%
same,%RE to 0 h (peak ratio C16/IS),"[2]; 10mg/mL at 4 °C, 8 h",-0.6%
same,%RE to 0 h (peak ratio C16/IS),"[2]; 10mg/mL at 4 °C, 24 h",-1.4%
same,%RE to 0 h (peak ratio C16/IS),"[2]; 10mg/mL at room temperature, 1 h",1.8%
same,%RE to 0 h (peak ratio C16/IS),"[2]; 10mg/mL at room temperature, 2 h",1.8%
same,%RE to 0 h (peak ratio C16/IS),"[2]; 10mg/mL at room temperature, 4 h",-1.0%
same,%RE to 0 h (peak ratio C16/IS),"[2]; 10mg/mL at room temperature, 8 h",1.4%
same,%RE to 0 h (peak ratio C16/IS),"[2]; 10mg/mL at room temperature, 24 h",2.9%
same,%RE to 0 h (peak ratio C16/IS),"[2]; 30mg/mL at 4°C, 1 h",4.8%
same,%RE to 0 h (peak ratio C16/IS),"[2]; 30mg/mL at 4°C, 2 h",-6.1%
same,%RE to 0 h (peak ratio C16/IS),"[2]; 30mg/mL at 4°C, 4 h",3.5%
same,%RE to 0 h (peak ratio C16/IS),"[2]; 30mg/mL at 4°C, 8 h",5.0%
same,%RE to 0 h (peak ratio C16/IS),"[2]; 30mg/mL at 4°C, 24 h",1.6%
same,%RE to 0 h (peak ratio C16/IS),"[2]; 30mg/mL at room temperature, 1 h",-0.6%
same,%RE to 0 h (peak ratio C16/IS),"[2]; 30mg/mL at room temperature, 2 h",0.2%
same,%RE to 0 h (peak ratio C16/IS),"[2]; 30mg/mL at room temperature, 4 h",-3.1%
same,%RE to 0 h (peak ratio C16/IS),"[2]; 30mg/mL at room temperature, 8 h",-5.4%
same,%RE to 0 h (peak ratio C16/IS),"[2]; 30mg/mL at room temperature, 24 h",0.3%
same,Stability of solutions in 10% Solutol HS-15 / 90% PEG 600,"[2]; 10 and 30 mg/mL, room temperature (20–25 °C) and 4°C over 24 h",stable
same,CYP inhibition 3A4 (BFC substrate),CYP 3A4,27 % inhibition of control
same,"Peak ratio C16/IS relative to first time point, Average of three wavelengths","[3]; room temperature, 5.3 h",90.3
same,"Peak ratio C16/IS relative to first time point, Average of three wavelengths","[3]; room temperature, 55 h",95.0
same,"Peak ratio C16/IS relative to first time point, Average of three wavelengths","[3]; room temperature, 102 h",96.9
same,"Peak ratio C16/IS relative to first time point, Average of three wavelengths","[3]; room temperature, 144 h",85.8
same,Distribution of compound in Medigel Sucralose,[3]; five sampling sites,uniformly distributed
same,Stability of suspension in Medigel Sucralose,"[3]; room temperature, over 144 h",stable
